Legend:
windgrass [1] = experiment: Test Example 4: herbicidal effect by soil treatment (Table 19, symbol L); type: in vivo, windgrass (Apera spica-venti); details: amount of applied herbicide 320 g/ha
In short: (§1)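 In this soil treatment, the formulated compound reached the seeds only through the soil: seeds were buried about 1.5 cm deep in sterilized diluvial soil, then the diluted emulsion was sprayed over the surface. After three weeks at 25° C. to 30° C. in a greenhouse, effects were graded on criteria from an earlier test.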

southern crabgrass [2] = experiment: Test Example 4: herbicidal effect by soil treatment (Table 19, symbol F); type: in vivo, southern crabgrass (Digitaria ciliaris); details: amount of applied herbicide 320 g/ha
In short: as §1

wild oat [3] = experiment: Test Example 4: herbicidal effect by soil treatment (Table 19, symbol I); type: in vivo, wild oat (Avena fatua); details: amount of applied herbicide 320 g/ha
In short: as §1

green foxtail [4] = experiment: Test Example 4: herbicidal effect by soil treatment (Table 19, symbol G); type: in vivo, green foxtail (Setaria viridis); details: amount of applied herbicide 320 g/ha
In short: as §1

lambsquarters [5] = experiment: Test Example 4: herbicidal effect by soil treatment (Table 19, symbol O); type: in vivo, lambsquarters (Chenopodium album); details: amount of applied herbicide 320 g/ha
In short: as §1

green foxtail [6] = experiment: Test Example 5: herbicidal effect by foliage application, plastic box (Table 20, symbol G); type: in vivo, green foxtail (Setaria viridis); details: amount of applied herbicide 320 g/ha; foliage application after 14-day growth; evaluated three weeks after application
In short: (§2)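 Plants were sown into sterilized diluvial soil under about 1.5 cm cover and kept in a greenhouse at 25° C. to 30° C. Fourteen days on, foliage received an even spray of the diluted emulsion. Herbicidal or crop effect was judged three weeks afterwards.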

velvetleaf [7] = experiment: Test Example 4: herbicidal effect by soil treatment (Table 19, symbol M); type: in vivo, velvetleaf (Abutilon theophrasti); details: amount of applied herbicide 320 g/ha
In short: as §1

redroot pigweed [8] = experiment: Test Example 4: herbicidal effect by soil treatment (Table 19, symbol N); type: in vivo, redroot pigweed (Amaranthus retroflexus); details: amount of applied herbicide 320 g/ha
In short: as §1

persian speedwell [9] = experiment: Test Example 4: herbicidal effect by soil treatment (Table 19, symbol R); type: in vivo, Persian speedwell (Veronica persica); details: amount of applied herbicide 320 g/ha
In short: as §1

blackgrass [10] = experiment: Test Example 4: herbicidal effect by soil treatment (Table 19, symbol J); type: in vivo, blackgrass (Alopecurus myosuroides); details: amount of applied herbicide 320 g/ha
In short: as §1

chickweed [11] = experiment: Test Example 5: herbicidal effect by foliage application, plastic box (Table 20, symbol P); type: in vivo, common chickweed (Stellaria media); details: amount of applied herbicide 320 g/ha; foliage application after 14-day growth; evaluated three weeks after application
In short: as §2

barnyard grass [12] = experiment: Test Example 3: herbicidal effect by foliage application, Wagner pot (Table 18, symbol H); type: in vivo, barnyard grass (Echinochloa crus-galli); details: 320 g/ha
In short: (§3)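 Plants were sown in alluvial soil held under 0.1–0.5 cm standing water and grown 14 days in a greenhouse at 25–30 °C. An emulsifiable formulation, water-diluted to the set dose, was then sprayed onto the foliage, and effects were scored three weeks later using previously defined criteria.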

chickweed [13] = experiment: Test Example 4: herbicidal effect by soil treatment (Table 19, symbol P); type: in vivo, common chickweed (Stellaria media); details: amount of applied herbicide 320 g/ha
In short: as §1

redroot pigweed [14] = experiment: Test Example 5: herbicidal effect by foliage application, plastic box (Table 20, symbol N); type: in vivo, redroot pigweed (Amaranthus retroflexus); details: amount of applied herbicide 320 g/ha; foliage application after 14-day growth; evaluated three weeks after application
In short: as §2

blackgrass [15] = experiment: Test Example 5: herbicidal effect by foliage application, plastic box (Table 20, symbol J); type: in vivo, blackgrass (Alopecurus myosuroides); details: amount of applied herbicide 320 g/ha; foliage application after 14-day growth; evaluated three weeks after application
In short: as §2

southern crabgrass [16] = experiment: Test Example 5: herbicidal effect by foliage application, plastic box (Table 20, symbol F); type: in vivo, southern crabgrass (Digitaria ciliaris); details: amount of applied herbicide 320 g/ha; foliage application after 14-day growth; evaluated three weeks after application
In short: as §2

persian speedwell [17] = experiment: Test Example 5: herbicidal effect by foliage application, plastic box (Table 20, symbol R); type: in vivo, Persian speedwell (Veronica persica); details: amount of applied herbicide 320 g/ha; foliage application after 14-day growth; evaluated three weeks after application
In short: as §2

wild oat [18] = experiment: Test Example 5: herbicidal effect by foliage application, plastic box (Table 20, symbol I); type: in vivo, wild oat (Avena fatua); details: amount of applied herbicide 320 g/ha; foliage application after 14-day growth; evaluated three weeks after application
In short: as §2

Chinese sprangletop = experiment: Test Example 3: herbicidal effect by foliage application, Wagner pot (Table 18, symbol D); type: in vivo, chinese sprangletop (Leptochloa chinensis); details: 320 g/ha
In short: as §3

velvetleaf [19] = experiment: Test Example 5: herbicidal effect by foliage application, plastic box (Table 20, symbol M); type: in vivo, velvetleaf (Abutilon theophrasti); details: amount of applied herbicide 320 g/ha; foliage application after 14-day growth; evaluated three weeks after application
In short: as §2

Italian ryegrass [20] = experiment: Test Example 5: herbicidal effect by foliage application, plastic box (Table 20, symbol K); type: in vivo, Italian ryegrass (Lolium multiflorum); details: amount of applied herbicide 320 g/ha; foliage application after 14-day growth; evaluated three weeks after application
In short: as §2

lambsquarters [21] = experiment: Test Example 5: herbicidal effect by foliage application, plastic box (Table 20, symbol O); type: in vivo, lambsquarters (Chenopodium album); details: amount of applied herbicide 320 g/ha; foliage application after 14-day growth; evaluated three weeks after application
In short: as §2

rice flat sedge = experiment: Test Example 3: herbicidal effect by foliage application, Wagner pot (Table 18, symbol E); type: in vivo, rice flat sedge (Cyperus iria); details: 320 g/ha
In short: as §3

Italian ryegrass [22] = experiment: Test Example 4: herbicidal effect by soil treatment (Table 19, symbol K); type: in vivo, Italian ryegrass (Lolium multiflorum); details: amount of applied herbicide 320 g/ha
In short: as §1

barnyard grass [23] = experiment: Test Example 4: herbicidal effect by soil treatment (Table 19, symbol H); type: in vivo, barnyard grass (Echinochloa crus-galli); details: amount of applied herbicide 320 g/ha
In short: as §1

windgrass [24] = experiment: Test Example 5: herbicidal effect by foliage application, plastic box (Table 20, symbol L); type: in vivo, windgrass (Apera spica-venti); details: amount of applied herbicide 320 g/ha; foliage application after 14-day growth; evaluated three weeks after application
In short: as §2

barnyard grass [25] = experiment: Test Example 5: herbicidal effect by foliage application, plastic box (Table 20, symbol H); type: in vivo, barnyard grass (Echinochloa crus-galli); details: amount of applied herbicide 320 g/ha; foliage application after 14-day growth; evaluated three weeks after application
In short: as §2

| Compound | Herbicidal effect by soil treatment, L: windgrass (windgrass [1]) | Herbicidal effect by soil treatment, F: southern crabgrass (southern crabgrass [2]) | Herbicidal effect by soil treatment, I: wild oat (wild oat [3]) | Herbicidal effect by soil treatment, G: green foxtail (green foxtail [4]) | Herbicidal effect by soil treatment, O: lambsquarters (lambsquarters [5]) | Herbicidal effect by foliage application, G: green foxtail (green foxtail [6]) | Herbicidal effect by soil treatment, M: velvetleaf (velvetleaf [7]) | Herbicidal effect by soil treatment, N: redroot pigweed (redroot pigweed [8]) | Herbicidal effect by soil treatment, R: persian speedwell (persian speedwell [9]) | Herbicidal effect by soil treatment, J: blackgrass (blackgrass [10]) | Herbicidal effect by foliage application, P: chickweed (chickweed [11]) | herbicidal effect on barnyard grass (H) (barnyard grass [12]) | Herbicidal effect by soil treatment, P: chickweed (chickweed [13]) | Herbicidal effect by foliage application, N: redroot pigweed (redroot pigweed [14]) | Herbicidal effect by foliage application, J: blackgrass (blackgrass [15]) | Herbicidal effect by foliage application, F: southern crabgrass (southern crabgrass [16]) | Herbicidal effect by foliage application, R: persian speedwell (persian speedwell [17]) | Herbicidal effect by foliage application, I: wild oat (wild oat [18]) | herbicidal effect on Chinese sprangletop (D) (Chinese sprangletop) | Herbicidal effect by foliage application, M: velvetleaf (velvetleaf [19]) | also measured |
| --- | --- | --- | --- | --- | --- | --- | --- | --- | --- | --- | --- | --- | --- | --- | --- | --- | --- | --- | --- | --- | --- |
| Cc1nn(C)c(=O)c(-c2c(-c3ccc(OC(F)(F)F)cc3)sc3c(Cl)cccc23)c1O [4-078] | 0 (Herbicidal rate of 5% or less (almost no effect)) | 0 (Herbicidal rate of 5% or less (almost no effect)) | 0 (Herbicidal rate of 5% or less (almost no effect)) | 0 (Herbicidal rate of 5% or less (almost no effect)) | 0 (Herbicidal rate of 5% or less (almost no effect)) | 0 (Herbicidal rate of 5% or less (almost no effect)) | 0 (Herbicidal rate of 5% or less (almost no effect)) | 2 (Herbicidal rate of 20% or more and less than 40%) | 4 (Herbicidal rate of 70% or more and less than 90%) | 0 (Herbicidal rate of 5% or less (almost no effect)) | 5 (Herbicidal rate of 90% or more (almost completely withered)) | 3 (Herbicidal rate of 40% or more and less than 70%) | 3 (Herbicidal rate of 40% or more and less than 70%) | 5 (Herbicidal rate of 90% or more (almost completely withered)) | 0 (Herbicidal rate of 5% or less (almost no effect)) | 0 (Herbicidal rate of 5% or less (almost no effect)) | 5 (Herbicidal rate of 90% or more (almost completely withered)) | 0 (Herbicidal rate of 5% or less (almost no effect)) | 2 (Herbicidal rate of 20% or more and less than 40%) | 3 (Herbicidal rate of 40% or more and less than 70%) | Herbicidal effect by foliage application, K: Italian ryegrass (Italian ryegrass [20]): 0 (Herbicidal rate of 5% or less (almost no effect)); Herbicidal effect by foliage application, O: lambsquarters (lambsquarters [21]): 3 (Herbicidal rate of 40% or more and less than 70%); herbicidal effect on rice flat sedge (E) (rice flat sedge): 3 (Herbicidal rate of 40% or more and less than 70%); Herbicidal effect by soil treatment, K: Italian ryegrass (Italian ryegrass [22]): 0 (Herbicidal rate of 5% or less (almost no effect)); Herbicidal effect by soil treatment, H: barnyard grass (barnyard grass [23]): 0 (Herbicidal rate of 5% or less (almost no effect)); Herbicidal effect by foliage application, L: windgrass (windgrass [24]): 5 (Herbicidal rate of 90% or more (almost completely withered)); Herbicidal effect by foliage application, H: barnyard grass (barnyard grass [25]): 0 (Herbicidal rate of 5% or less (almost no effect)) |
| Cc1nn(C)c(=O)c(-c2c(-c3ccc(SC(C)C)cc3)sc3c(Cl)cccc23)c1O [4-096] | 0 (Herbicidal rate of 5% or less (almost no effect)) | 0 (Herbicidal rate of 5% or less (almost no effect)) | 0 (Herbicidal rate of 5% or less (almost no effect)) | 0 (Herbicidal rate of 5% or less (almost no effect)) | 3 (Herbicidal rate of 40% or more and less than 70%) | 3 (Herbicidal rate of 40% or more and less than 70%) | 0 (Herbicidal rate of 5% or less (almost no effect)) | 5 (Herbicidal rate of 90% or more (almost completely withered)) | 4 (Herbicidal rate of 70% or more and less than 90%) | 0 (Herbicidal rate of 5% or less (almost no effect)) | 5 (Herbicidal rate of 90% or more (almost completely withered)) | 5 (Herbicidal rate of 90% or more (almost completely withered)) | 3 (Herbicidal rate of 40% or more and less than 70%) | 5 (Herbicidal rate of 90% or more (almost completely withered)) | 3 (Herbicidal rate of 40% or more and less than 70%) | 0 (Herbicidal rate of 5% or less (almost no effect)) | 5 (Herbicidal rate of 90% or more (almost completely withered)) | 2 (Herbicidal rate of 20% or more and less than 40%) | 3 (Herbicidal rate of 40% or more and less than 70%) | 3 (Herbicidal rate of 40% or more and less than 70%) | Herbicidal effect by foliage application, K: Italian ryegrass (Italian ryegrass [20]): 4 (Herbicidal rate of 70% or more and less than 90%); Herbicidal effect by foliage application, O: lambsquarters (lambsquarters [21]): 4 (Herbicidal rate of 70% or more and less than 90%); herbicidal effect on rice flat sedge (E) (rice flat sedge): 3 (Herbicidal rate of 40% or more and less than 70%); Herbicidal effect by soil treatment, K: Italian ryegrass (Italian ryegrass [22]): 0 (Herbicidal rate of 5% or less (almost no effect)); Herbicidal effect by soil treatment, H: barnyard grass (barnyard grass [23]): 0 (Herbicidal rate of 5% or less (almost no effect)); Herbicidal effect by foliage application, L: windgrass (windgrass [24]): 3 (Herbicidal rate of 40% or more and less than 70%); Herbicidal effect by foliage application, H: barnyard grass (barnyard grass [25]): 4 (Herbicidal rate of 70% or more and less than 90%) |
